Assay results published in patent EP0156233A2, “Use of leukotriene antagonists for producing cytoprotective pharmaceutical compositions and process for producing cytoprotective pharmaceutical compositions” (Merck & Co., Inc., priority 1984, dated 1985).

Test system: S.D. rats
Assay: Indomethacin-Induced Ulcer Assay (assay B)
Type: in vivo
Details: 15 min prior to indomethacin 10 mg/kg p.o., 24 hr. fasted rats, sacrificed four hours later
Description: B. Indomethacin-Induced Ulcer Assay
Indomethacin, 10 mg/kg p.o., is used to induce ulcers in 24 hr. fasted S.D. rats. Fifteen minutes prior to indomethacin administration, groups of rats each receive either an aqueous vehicle (5% wt. methylcellulose) or the test compound at various doses perorally. Four hours later the animals are sacrificed and stomach mucosae are examined for resulting ulcers.
Following the procedure of assay B (Indomethacin-Induced Ulcer Assay), various compounds were tested for ulcer inhibition.

## CCCc1c(OCCCSc2ccc(C(=O)CCC#N)cc2)ccc(C(C)=O)c1O [Example 40, 4-(3-(4-acetyl-3-hydroxy-2-propyl-phenoxy)propylthio)-gamma-oxobenzenebutyronitrile]
Dose 30 mg/kg p.o.
  % Inhib.: 89.4%

## CCCc1c(OCCCSc2ccc([C@H](O)[C@@H](C)CC(=O)O)cc2)ccc(C(C)=O)c1O (relative stereo) [Example 78, (Beta S^*, gamma R^*)-sodium 4-(3-(4-acetyl-3-hydroxy-2-propylphenoxy)propylthio)-gamma-hydroxy-beta-methyl-benzenebutanoate]
Dose 0.03 mg/kg p.o.
  % Inhib.: 14.1%
Dose 0.1 mg/kg p.o.
  % Inhib.: 27.1%
Dose 0.3 mg/kg p.o.
  % Inhib.: 50.1%
Dose 1 mg/kg p.o.
  % Inhib.: 70.1%
Dose 3 mg/kg p.o.
  % Inhib.: 74.1%
Dose 10 mg/kg p.o.
  % Inhib.: 76.1%

## CCCc1c(OCCCOc2ccc([C@H](O)[C@@H](C)CC(=O)[O-])cc2)ccc(C(C)=O)c1O.[Na+] (relative stereo) [Example 103, Sodium (beta S^*, gamma R^*) 4-(3-(4-acetyl-3-hydroxy-2-propylphenoxy)propyloxy)-gamma-hydroxy-beta-methylbenzenebutanoate]
Dose 0.1 mg/kg p.o.
  % Inhib.: 61.1%
Dose 1 mg/kg p.o.
  % Inhib.: 76.1%
Dose 10 mg/kg p.o.
  % Inhib.: 74.1%

## CCCc1c(OCCCS(=O)(=O)c2ccc([C@H](O)[C@@H](C)CC(=O)O)cc2)ccc(C(C)=O)c1O (relative stereo) [Example 77, (Beta S^*, gamma R^*) sodium 4-(3-(4-acetyl-3-hydroxy-2-propylphenoxy)propylsulfonyl)-gamma-hydroxy-beta-methylenzenebutanoate]
Dose 30 mg/kg p.o.
  % Inhib.: 46.5%

## CCCc1c(OCCCS(=O)(=O)c2ccc(C(=O)CCC(=O)O)cc2)ccc(C(C)=O)c1O [Example 29, 4-(3-(4-Acetyl-3-hydroxy-2-propylphenoxy)-propylsulfonyl)-gamma-oxobenzenebutanoic acid]
Dose 30 mg/kg p.o.
  % Inhib.: 78.9%
